The text below walks through data of ChEMBL document CHEMBL1201862, “PubChem BioAssay data set” (2004).

Active and inactive are the calls of the source.

T1 sequence (P11940 whole entry): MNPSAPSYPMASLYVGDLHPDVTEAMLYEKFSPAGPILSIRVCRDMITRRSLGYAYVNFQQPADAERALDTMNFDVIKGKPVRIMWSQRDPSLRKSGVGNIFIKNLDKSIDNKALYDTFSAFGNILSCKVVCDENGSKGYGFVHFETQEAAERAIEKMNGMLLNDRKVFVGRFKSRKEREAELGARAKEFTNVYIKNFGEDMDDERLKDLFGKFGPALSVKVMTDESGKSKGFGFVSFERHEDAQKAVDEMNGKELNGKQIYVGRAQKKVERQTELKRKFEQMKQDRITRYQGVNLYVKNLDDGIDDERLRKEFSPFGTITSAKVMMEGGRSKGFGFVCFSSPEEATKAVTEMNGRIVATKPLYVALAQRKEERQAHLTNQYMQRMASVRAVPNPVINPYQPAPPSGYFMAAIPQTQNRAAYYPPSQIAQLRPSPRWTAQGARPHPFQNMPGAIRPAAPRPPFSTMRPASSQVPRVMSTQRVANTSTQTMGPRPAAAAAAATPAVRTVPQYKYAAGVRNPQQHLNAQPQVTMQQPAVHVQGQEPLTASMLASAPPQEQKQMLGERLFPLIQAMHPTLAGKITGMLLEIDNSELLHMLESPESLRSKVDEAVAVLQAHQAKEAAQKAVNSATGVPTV

The first assay has as its target T1, Polyadenylate-binding protein 1 (Homo sapiens, UniProt P11940). Put plainly: PABP1 MLLE–PAM2 binding inhibitor potency, dose response, biochemical, fluorescence polarization, FITC-PAM2 peptide (AID 602259). Format: functional. The following applies: read-out: IC50_Mean.
With `CCc1ccc(S(=O)(=O)N=C(S)NC2CCCCC2)cc1`, the IC50 is > 66 µM (inactive).
Still for that read-out and setting: for `CN1C(=O)/C(=C2/C=CC=CN2C)OC1=S` the value was > 66 µM (inactive).
On the same count and under the same terms, the figure for `O=C(CSc1nnc(C2COc3ccccc3O2)o1)N1CCCC1` (configuration not stated) is > 66 µM (inactive); for `O=C(CSc1c[nH]nn1)Nc1ccc(O)c(C(=O)O)c1` it is > 66 µM (inactive); for `CS(=O)(=O)N1CCN(C(=O)C(Sc2ccccc2)c2ccccc2)CC1` (configuration not stated) it is > 66 µM (inactive).
Same read-out and setting: the figure for `COc1ccc2[nH]c3c(=O)n(CCCCC(=O)N4CCC(C(N)=O)CC4)c(=S)[nH]c3c2c1` is > 66 µM (inactive).

The target in a further assay is T2, Corticotropin-releasing factor receptor 2/Corticotropin-releasing factor-binding protein (Homo sapiens, UniProt P24387+Q13324).
T2 sequence (Q13324 whole entry): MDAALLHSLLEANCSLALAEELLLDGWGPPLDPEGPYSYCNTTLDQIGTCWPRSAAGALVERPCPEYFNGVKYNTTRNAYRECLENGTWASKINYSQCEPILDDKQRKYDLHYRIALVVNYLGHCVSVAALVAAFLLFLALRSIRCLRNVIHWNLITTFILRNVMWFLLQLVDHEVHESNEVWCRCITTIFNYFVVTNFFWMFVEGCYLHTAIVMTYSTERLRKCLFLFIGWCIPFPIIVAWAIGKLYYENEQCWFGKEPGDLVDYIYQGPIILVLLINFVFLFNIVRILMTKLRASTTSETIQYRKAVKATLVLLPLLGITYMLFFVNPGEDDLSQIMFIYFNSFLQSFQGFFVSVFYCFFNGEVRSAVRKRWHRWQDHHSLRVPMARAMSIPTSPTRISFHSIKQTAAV
T2 sequence (P24387 whole entry): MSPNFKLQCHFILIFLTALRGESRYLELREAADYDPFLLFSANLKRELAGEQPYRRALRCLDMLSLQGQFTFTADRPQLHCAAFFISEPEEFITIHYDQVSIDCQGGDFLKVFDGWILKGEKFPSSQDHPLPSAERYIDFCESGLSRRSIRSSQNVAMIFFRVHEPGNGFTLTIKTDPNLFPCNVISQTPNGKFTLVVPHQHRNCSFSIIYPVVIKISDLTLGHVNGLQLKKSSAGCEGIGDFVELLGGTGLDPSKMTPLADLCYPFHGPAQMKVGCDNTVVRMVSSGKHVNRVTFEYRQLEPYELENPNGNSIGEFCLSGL
Kind of assay: Dose Response confirmation of uHTS hits for small molecule antagonists of the CRF-binding protein and CRF-R2 receptor complex. In kind it is functional. The following applies: read-out: IC50_Mean.
`O=C1CC2CS(=O)(=O)CC2N1c1ccc(Oc2ccccc2)cc1` (configuration not stated): the IC50 was > 47.1 µM (inactive).
Still for that read-out and setting: for `CC(Nc1ccc([N+](=O)[O-])cc1[N+](=O)[O-])c1ccccc1` (configuration not stated) the value was 34.7 µM (active).
The same measure, in the same setting: for `Cc1ccc(CC(=O)NCCCc2ccccc2)cc1` the value was > 47.1 µM (inactive).
The same measure, in the same setting: the figure for `Cc1cc(C(=O)NNC(=O)C(CCC(N)=O)NS(=O)(=O)c2ccc(Cl)cc2)c(C)o1` (configuration not stated) is > 47.1 µM (inactive); for `CC1=C(C(=O)N(C(C)C)C(C)C)CC(CC(=O)NC2CCCCC2)C(=O)N1Cc1ccccc1` (configuration not stated) it is > 47.1 µM (inactive); for `O=C(NCc1ccccc1)c1ccc(Cl)cc1` it is > 47.1 µM (inactive).
In the case of `Oc1c(Br)cc(-c2ccccc2)cc1Br`, the IC50 was 10.1 µM (active).

The target in a further assay is T3, Ubiquitin-conjugating enzyme E2 N (Homo sapiens, UniProt P61088).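 Note: Dose-response confirmation in a TR-FRET assay detecting UBC13-driven polyubiquitin chain formation, inhibition measured.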
T3 sequence (P61088 whole entry): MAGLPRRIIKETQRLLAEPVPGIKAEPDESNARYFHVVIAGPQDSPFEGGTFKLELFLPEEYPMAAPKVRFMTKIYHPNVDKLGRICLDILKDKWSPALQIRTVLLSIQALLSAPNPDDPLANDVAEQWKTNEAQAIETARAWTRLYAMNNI
Format: functional.
Settings: not given
For `CCC(=O)NC(c1cccs1)c1cc(Cl)c2ccccc2c1O` (configuration not stated), the IC50 was > 20 µM (inactive).
The same measure, in the same setting: for `OCCN1CCN(CC/C=C2/c3ccccc3Sc3ccc(Cl)cc32)CC1` the value was > 20 µM (inactive); for `COc1ccnc2c1c(=O)n(Cc1cccc(F)c1)c(=O)n2C`, > 20 µM (inactive).

The target of a further assay is T1, Polyadenylate-binding protein 1. Kind of assay: PABP1 MLLE–PAM2 interaction inhibitors, dose response, miRNA deadenylation inhibitor project, biochemical, fluorescence polarization, Cy5-PAM2 peptide, secondary (AID 602260). Conditions: read-out: IC50_Mean. In kind it is functional.
Take `CCc1ccc(S(=O)(=O)N=C(S)NC2CCCCC2)cc1`: the IC50 is > 66 µM (inactive).
Same read-out and setting: the figure for `CN1C(=O)/C(=C2/C=CC=CN2C)OC1=S` is > 66 µM (inactive).
With `O=C(CSc1nnc(C2COc3ccccc3O2)o1)N1CCCC1` (configuration not stated), the IC50 was > 66 µM (inactive).
On the same count and under the same terms, the figure for `O=C(CSc1c[nH]nn1)Nc1ccc(O)c(C(=O)O)c1` is > 66 µM (inactive); for `CS(=O)(=O)N1CCN(C(=O)C(Sc2ccccc2)c2ccccc2)CC1` (configuration not stated) it is > 66 µM (inactive); for `COc1ccc2[nH]c3c(=O)n(CCCCC(=O)N4CCC(C(N)=O)CC4)c(=S)[nH]c3c2c1` it is > 66 µM (inactive).

In the next assay the target is T2, Corticotropin-releasing factor receptor 2/Corticotropin-releasing factor-binding protein. Kind of assay: activators of CRF receptor 2 with binding protein – uHTS hits, confirmation (AID 602473). Format: functional. The following applies: read-out: EC50_Mean.
For `O=C1CC2CS(=O)(=O)CC2N1c1ccc(Oc2ccccc2)cc1` (configuration not stated), the EC50 was > 53 µM (inactive).
The same measure, in the same setting: for `CC(Nc1ccc([N+](=O)[O-])cc1[N+](=O)[O-])c1ccccc1` (configuration not stated) the value was > 53 µM (inactive); for `Cc1ccc(CC(=O)NCCCc2ccccc2)cc1`, > 53 µM (inactive).
Still for that read-out and setting: for `Cc1cc(C(=O)NNC(=O)C(CCC(N)=O)NS(=O)(=O)c2ccc(Cl)cc2)c(C)o1` (configuration not stated) the value was > 53 µM (inactive).
Consider `CC1=C(C(=O)N(C(C)C)C(C)C)CC(CC(=O)NC2CCCCC2)C(=O)N1Cc1ccccc1` (configuration not stated), for which the EC50 is > 53 µM (inactive).
`O=C(NCc1ccccc1)c1ccc(Cl)cc1`: the EC50 is > 53 µM (inactive).
On the same count and under the same terms, for `Oc1c(Br)cc(-c2ccccc2)cc1Br` the value was > 53 µM (inactive).

Another assay addresses T4, Heat shock factor protein 1 (Mus musculus, UniProt P38532).
T4 sequence (P38532 whole entry): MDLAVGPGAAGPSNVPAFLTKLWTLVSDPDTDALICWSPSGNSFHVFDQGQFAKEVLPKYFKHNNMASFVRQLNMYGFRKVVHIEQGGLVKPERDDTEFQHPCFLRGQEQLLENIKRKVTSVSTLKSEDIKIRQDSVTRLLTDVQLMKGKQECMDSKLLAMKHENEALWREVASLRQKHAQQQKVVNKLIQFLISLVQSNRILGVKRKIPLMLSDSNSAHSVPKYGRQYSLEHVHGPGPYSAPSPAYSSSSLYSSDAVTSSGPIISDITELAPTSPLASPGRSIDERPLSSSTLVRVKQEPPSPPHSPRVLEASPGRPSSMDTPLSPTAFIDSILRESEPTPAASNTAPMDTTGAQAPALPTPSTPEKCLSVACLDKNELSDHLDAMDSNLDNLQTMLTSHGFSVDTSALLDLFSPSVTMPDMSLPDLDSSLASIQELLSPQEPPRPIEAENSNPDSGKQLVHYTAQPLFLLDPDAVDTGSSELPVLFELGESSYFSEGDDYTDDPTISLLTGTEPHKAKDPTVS
Put plainly: inhibition of MG132-induced HSE-luciferase signal, confirmation, cell-based, NIH3T3, luminescence, dose retest (AID 2382).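 Note: NIH3T3 fibroblasts with HSF1-driven luciferase reporter stressed by proteasome inhibitor MG132; luminescence from HSF1-driven luciferase expression after 8 hours of MG132 stress.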 In kind it is functional.
Settings: not given
Regarding `O=C(CSc1c[nH]nn1)Nc1ccc(O)c(C(=O)O)c1`, the EC50 is > 195 µM (not active).

In a further assay the target is T5, Rac GTPase-activating protein 1 (Homo sapiens, UniProt Q9H0H5).
T5 sequence (Q9H0H5 whole entry): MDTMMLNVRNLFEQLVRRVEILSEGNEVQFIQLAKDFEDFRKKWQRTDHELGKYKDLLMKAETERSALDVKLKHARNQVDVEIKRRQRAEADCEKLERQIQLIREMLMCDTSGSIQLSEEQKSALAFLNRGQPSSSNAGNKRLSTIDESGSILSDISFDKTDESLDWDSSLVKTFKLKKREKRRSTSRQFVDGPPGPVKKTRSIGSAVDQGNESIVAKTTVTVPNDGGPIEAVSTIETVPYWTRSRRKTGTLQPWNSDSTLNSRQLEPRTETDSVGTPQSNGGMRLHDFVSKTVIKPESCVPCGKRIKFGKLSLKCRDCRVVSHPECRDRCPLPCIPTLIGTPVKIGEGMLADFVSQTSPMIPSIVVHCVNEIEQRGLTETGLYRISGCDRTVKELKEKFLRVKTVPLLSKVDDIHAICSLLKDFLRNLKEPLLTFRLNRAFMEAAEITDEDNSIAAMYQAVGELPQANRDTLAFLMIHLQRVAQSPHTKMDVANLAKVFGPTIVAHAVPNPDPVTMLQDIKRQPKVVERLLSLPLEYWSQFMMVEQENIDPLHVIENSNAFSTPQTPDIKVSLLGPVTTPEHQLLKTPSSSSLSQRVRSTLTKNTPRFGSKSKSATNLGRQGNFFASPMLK
Put plainly: MgcRacGAP GTPase-activating activity inhibitors, confirmation, biochemical, ADP Hunter fluorescence, primary and confirmatory (AID 624330).
Settings: not given
Format: functional.
As to `COc1ccc2[nH]c3c(=O)n(CCCCC(=O)N4CCC(C(N)=O)CC4)c(=S)[nH]c3c2c1`, the IC50 was 55.4 µM (active).
Still for that read-out and setting: the figure for `Oc1c(Br)cc(-c2ccccc2)cc1Br` is 85 µM (active).
